Source: patent US7771931B2, “Methods for diagnosing and treating diseases and conditions associated with protein kinase Cλ” (The General Hospital Corporation, priority 2001, dated 2010)

Key:
PKCλ = test: Antisense morpholino injection into zebrafish embryos; assay type: in vivo; conditions: injected into 1-4 cell embryos
Procedure: An antisense morpholino oligonucleotide of sequence 5′-[…]-3′ (SEQ ID NO:6) (GeneTools, LLC) was dissolved at a concentration of […] in 1× Danieau's buffer (5 mM Hepes pH 7.6, 58 mM NaCl, 0.7 mM KCl, 0.6 mM Ca (NO3)2, 0.4 mM MgSO4). One nL of this solution or 1× Danieau's buffer was injected into each 1-4 cell embryo before allowing the embryos to develop at 28.50° C.

mammalian cells = test: Bromodeoxyuridine incorporation in mammalian cells; assay type: cell-based
zebrafish embryos [1] = test: Fusion order of heart primordia (cmlc2 expression, 16- and 18-somite stages); assay type: in vivo
Procedure: (§1) Digoxigenin-labeled antisense RNA probes were generated by ill vitro transcription for cmlc2 (Yelon et al., supra), vmhc (Yelon et al., supra), and pax2.1 (Krauss et al., Development 113:1193-1206, 1991). In situ hybridization was carried out as described (Oxtoby et al., Nucleic Acids Res. 21:1087-1095, 1993). For whole-mount immunohistochemistry, embryos were fixed in 4% paraformaldehyde in phosphate-buffered saline (S46 and 3G8) or 80% methanol, 20% dimethyl sulfoxide (α-ZO-1), permeablized in acetone for 30 minutes at −20° C. (3G8), blocked with 5% fetal bovine serum, and incubated with the antibodies S46, 3G8 (Vize et al., Dev. Biol. 171:531-540, 1995), or α-ZO-1. An anti-mouse-horseradish peroxidase conjugate was used as secondary antibody for S46 and 3G8, and an Alexa 488-labeled anti-mouse secondary antibody was used for α-ZO-1 staining.

zebrafish embryos [2] = test: Small molecule treatment of developing zebrafish embryos, visual inspection of heart patterning
Description: Visual inspection of the transparent embryos was used to identify small molecules that affect the global patterning of the heart.

zebrafish embryos [3] = test: Anterior-posterior patterning by in situ hybridization (Pax2.1, cmlc2), 18-somite zebrafish embryos; assay type: in vivo
Procedure: as §1

C. elegans embryo = test: Early development of the C. elegans embryo (par-2::GFP strain KK871); assay type: in vivo; conditions: 34 μM concentramide
Procedure: C. eleganis strain KK871 (par-2::GFP) was maintained at 25° C. For each sample, 10-15 adult worms were soaked in 80 μL M9 medium containing 34 μM concentramide, 0.25% dimethyl sulfoxide for 30-60 minutes. Worms were then cut open with a scalpel, and embryos were mounted on 2% agarose pads with coverslips. Embryos were allowed to develop at 25° C. before being photographed live.

zebrafish embryos [4] = test: Retina histology of treated zebrafish embryos (hematoxylin-eosin, dapi); assay type: in vivo; conditions: concentramide-treated embryos
Description: (§2) Fixed embryos were dehydrated, embedded in plastic (JB4, Polysciences, Inc.), and sectioned at 2-7 μm. Retinal sections were stained with hematoxylin-eosin or dapi.

yeast = test: Rate of proliferation of yeast; assay type: cell-based
zebrafish embryos [5] = test: Kidney epithelium of treated zebrafish embryos (apical marker 3G8); assay type: in vivo; conditions: embryos exposed to concentramide
Procedure: as §1, §2

5′-CTGTCCCGCAGCGTGGGCATTATGG-3′ (all phosphorodiamidate morpholino (PMO)) [antisense morpholino oligomers]
phenotype of injected embryos compared with has mutation (PKCλ): phenocopy the mutation entirely

CCCCCc1ccc(-c2ccc(/C=C/C(N)=O)cc2)nc1 [concentramide]
effect on bromodeoxyuridine incorporation (mammalian cells): no effect | fusion of posterior ends of the heart field (zebrafish embryos [1]): failure to merge the posterior ends | phenotype at 6 μM compared with 6 nM (zebrafish embryos [2]; 6 μM versus 6 nM): virtually the same phenotype | brain development (zebrafish embryos [2]; concentramide-treated embryos): develop abnormally | heart phenotype of exposed embryos (zebrafish embryos [2]; embryos exposed to concentramide): compact hearts that do not sustain a circulation | cell death (zebrafish embryos [2]; general cytotoxicity): no increase in cell death is apparent | development relative to untreated siblings (zebrafish embryos [2]; general cytotoxicity): not delayed | stage before which concentramide must be present to induce the concentric chamber morphology (zebrafish embryos [2]; more precise staging, approximately 15 hpf): < 14 somite stage | potency on specific molecular target versus other proteins affecting visible developmental processes (zebrafish embryos [2]; same phenotype at 6 μM and 6 nM): at least 1,000 times | heart morphology at 24 hpf (zebrafish embryos [2]; treated after 17 hpf): wild-type heart morphology | heart morphology at 24 hpf (zebrafish embryos [2]; treated at any time prior to 14 hpf): concentric chamber morphology | brain and heart phenotype with timed treatment (zebrafish embryos [2]; treated between 9 and 14 hpf, concentric heart chamber phenotype preserved): eliminates this brain defect | distance between Pax2.1-expressing cells in the eyes and at the midbrain/hindbrain boundary (zebrafish embryos [3]; 18-somite embryos): reduced | distance between the anterior edge of the cmlc2-expressing field and the anterior extreme of the embryo (zebrafish embryos [3]; 18-somite stage, n=12, wild-type 3.1+/−0.2): 2.2+/−0.3 arbitrary units | Par2 localization (C. elegans embryo): retain proper localization of Par2 to the posterior pole | asymmetry of first cell division (C. elegans embryo): normally asymmetric first cell division | completion of development (C. elegans embryo): fail to complete development | cytokinesis (C. elegans embryo): cytolinetic defects | defects in cell polarity, RPE continuity, or lamination of the retina (zebrafish embryos [4]): do not exhibit defects | effect on rate of proliferation of yeast (yeast): no effect | irregular epithelial cell shapes and gaps between cells in the kidney (zebrafish embryos [5]): did not observe these defects
